Source: patent US7387878B2, “Methods for DNA amplification and sequencing” (Yeda Research and Development Co. Ltd., priority 1998, dated 2008)
Values joined by “and” are separate entries in the source; they are usually repeats but may differ in a detail not shown here. Equal values may be shown once. “Also recorded” adds a separate entry of the source. Read-outs that look alike come from different tables or passages of the source.

What was measured:
Taq DNA polymerase [1] = biological target: T1, Taq DNA polymerase (Thermus aquaticus, UniProt P19821); details: DMSO in 10% concentration; cited from earlier work
T1 construct: purchased MBI Fermentas
T1 sequence (P19821 whole entry): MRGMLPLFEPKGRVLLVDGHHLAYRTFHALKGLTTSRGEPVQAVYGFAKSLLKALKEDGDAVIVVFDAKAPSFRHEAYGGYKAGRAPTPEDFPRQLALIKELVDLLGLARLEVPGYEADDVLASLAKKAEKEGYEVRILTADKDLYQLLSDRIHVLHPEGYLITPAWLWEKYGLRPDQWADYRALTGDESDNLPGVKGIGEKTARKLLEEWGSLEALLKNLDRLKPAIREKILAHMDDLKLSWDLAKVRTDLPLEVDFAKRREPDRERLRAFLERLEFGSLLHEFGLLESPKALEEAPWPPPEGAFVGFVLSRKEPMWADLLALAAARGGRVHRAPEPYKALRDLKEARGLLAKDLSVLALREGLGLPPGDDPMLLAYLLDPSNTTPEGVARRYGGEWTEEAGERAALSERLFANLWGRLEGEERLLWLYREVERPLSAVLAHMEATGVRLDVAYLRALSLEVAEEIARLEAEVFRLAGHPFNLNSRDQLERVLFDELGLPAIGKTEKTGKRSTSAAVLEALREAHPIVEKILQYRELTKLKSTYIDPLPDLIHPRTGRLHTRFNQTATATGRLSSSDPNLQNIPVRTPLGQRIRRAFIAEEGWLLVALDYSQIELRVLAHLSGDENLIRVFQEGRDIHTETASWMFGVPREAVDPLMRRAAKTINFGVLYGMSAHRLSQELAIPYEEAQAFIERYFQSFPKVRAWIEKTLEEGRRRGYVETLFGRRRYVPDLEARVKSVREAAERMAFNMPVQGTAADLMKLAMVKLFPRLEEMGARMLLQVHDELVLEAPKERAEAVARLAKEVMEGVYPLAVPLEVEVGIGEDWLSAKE

Taq DNA polymerase [2] = biological target: T1, Taq DNA polymerase; assay: Remaining activity of Taq polymerase after incubation at elevated temperatures; format: biochemical; details: for remaining Taq polymerase activity: 1M additive
Procedure: THP(B), THP(A) or glycerol were added from 3M stock solutions (pH 8.8 at 25° C.). The reaction mixtures were overlaid with paraffin oil and incubated at 95° C. or 97° C. Aliquotes (7.5 μl) were taken for polymerase activity assay at different periods of time.

animals = details: cited from earlier work
mammalian cells = details: cited from earlier work
calf thymus DNA (42% GC) = assay: DNA melting (absorbance at 260 nm), calf thymus DNA; details: 62° C. in aqueous solution
Procedure: (§1) DNA melting studies were conducted in a buffer (1 ml) containing 5.0 mM K2HPO4 and 0.1 mM Na2EDTA at pH 7.5. […] DNA samples were adjusted to O.D260=0.2 and incubated overnight at 37° C. before use, as previously described (Rees et al., 1993). […] The increase in absorbance at 260 nm was monitored in Hewlett Packard 9450A diode array spectrophotometer attached to a temperature programmer and controller. Both the sample and the reference cells were heated together at a rate of 0.5° C./min and the net absorbance was recorded after every 0.5° C. increase. The Tms were determined graphically from the midpoints of the absorbance versus temperature profile.

poly(dA-dT) = assay: DNA melting (absorbance at 260 nm), poly(dA-dT)
Procedure: as §1

[3] = test system: [d(GCTTAAGC)]2 (SEQ ID NO:2); assay: Thermal transition of short oligonucleotide by 1H NMR chemical shift; details: for Tm: DNA alone 48.0
Procedure: (§2) ^1H NMR measurements were carried out on a Bruker AMX 400 NMR MHZ spectrometer at 400.13 MHZ (equipped with an Aspect 300 control). For the ^1H NMR measurements, 1.0 mM DNA oligonucleotides were dissolved in 0.5 ml phosphate buffer solution (pH 7.2) in D2O (20 mM, for [d(ATGCAT)]2 (SEQ ID NO:1) and 40 mM for [d([…])]2 (SEQ ID NO:2) containing 50 mM NaCl and 0.1 mM EDTA. The solutions were lyophilized and then redissolved in 0.5 ml D2O (99.96%), heated to 65 EC and gradually cooled to 5 EC, and then degassed with argon at room temperature.
(§3) The thermal transitions of the short oligonucleotides [d(ATGCAT)]2 (SEQ ID NO:1) (FIG. 4A) and [d([…])]2 (SEQ ID NO:2) (FIG. 4B) were studied in the absence (open squares) and presence of 0.5M (open circles) and 1.0M (filled squares) THP(B). NMR chemical shift changes of the C4H5 proton of [d(ATGCAT)]2 (SEQ ID NO:1) and of the G1H8 proton of [d([…])]2 (SEQ ID NO:2) were measured as a function of increasing temperatures as described in Materials and Methods section (iii).

[4] = test system: [d(ATGCAT)]2 (SEQ ID NO:1); assay: as above; details: for Tm: DNA alone 31.5
Procedure: as §2, §3

[5] = test system: 349 b.p. fragment (66.5% GC content) from Halobacterium marismortui genomic DNA; assay: PCR with THP(B) using Taq DNA polymerase; format: biochemical
Procedure: MgCl2 concentrations of 1.0 mM and 1.75 mM were used in the absence and presence of THP(B), respectively, added from a 3M stock solution (pH 8.8 at 25° C.). […] (primer extension).
PCR reaction was performed by Taq DNA polymerase as described in Materials and Methods, section (vii), using as a template whole genomic DNA of Halobacterium marismortui (66.5% GC) and the 28-mer primers 1 and 2 described in section (i).

[6] = test system: DNAs of varying base compositions; assay: DNA melting (absorbance at 260 nm), DNAs of varying base compositions
Procedure: as §1

T7 DNA polymerase = T7 DNA polymerase (Escherichia phage T7, UniProt P00581); details: 40% formamide; cited from earlier work
Chain of T7 DNA polymerase (P0AA25 2-109): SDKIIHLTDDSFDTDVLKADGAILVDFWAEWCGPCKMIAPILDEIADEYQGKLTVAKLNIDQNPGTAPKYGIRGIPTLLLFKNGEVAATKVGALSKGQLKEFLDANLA
Chain of T7 DNA polymerase (P00581 whole entry): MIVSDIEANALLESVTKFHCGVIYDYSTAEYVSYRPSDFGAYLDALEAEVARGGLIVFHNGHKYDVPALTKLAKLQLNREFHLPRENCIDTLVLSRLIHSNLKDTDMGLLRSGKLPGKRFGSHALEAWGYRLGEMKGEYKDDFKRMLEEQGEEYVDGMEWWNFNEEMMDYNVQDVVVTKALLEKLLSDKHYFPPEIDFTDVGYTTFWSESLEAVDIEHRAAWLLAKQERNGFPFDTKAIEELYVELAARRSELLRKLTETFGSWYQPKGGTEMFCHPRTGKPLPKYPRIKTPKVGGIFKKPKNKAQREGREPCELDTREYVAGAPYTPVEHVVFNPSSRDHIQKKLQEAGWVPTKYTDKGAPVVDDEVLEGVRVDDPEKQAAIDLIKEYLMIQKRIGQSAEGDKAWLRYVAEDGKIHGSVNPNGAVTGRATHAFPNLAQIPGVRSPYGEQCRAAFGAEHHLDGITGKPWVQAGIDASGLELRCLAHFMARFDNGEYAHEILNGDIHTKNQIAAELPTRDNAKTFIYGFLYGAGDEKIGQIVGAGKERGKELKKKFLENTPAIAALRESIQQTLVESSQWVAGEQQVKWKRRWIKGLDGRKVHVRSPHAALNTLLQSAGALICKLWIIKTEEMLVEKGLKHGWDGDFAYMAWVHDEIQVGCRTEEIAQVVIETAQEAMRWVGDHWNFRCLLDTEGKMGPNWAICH

Taq polymerase = Taq polymerase (Thermus aquaticus, UniProt P19821); details: 95-97° C.; cited from earlier work
Chain of Taq polymerase (P19821 whole entry): as the sequence (P19821 whole entry) above

Klenow DNA polymerase [7] = biological target: T2, Klenow DNA polymerase (Escherichia coli, UniProt P00582); assay: Klenow DNA polymerase activity assay at 37° C.; format: biochemical; details: for effect on Klenow polymerase activity: 1.0M additive, separate experiment, data not shown; for effect on Klenow DNA polymerase activity: 5.0M L-proline, 37° C., 6.7, 10.0 and 15.0 mM MgCl2
T2 construct: Klenow fragment of DNA polymerase I; purchased MBI Fermentas
T2 sequence (P00582 324-928): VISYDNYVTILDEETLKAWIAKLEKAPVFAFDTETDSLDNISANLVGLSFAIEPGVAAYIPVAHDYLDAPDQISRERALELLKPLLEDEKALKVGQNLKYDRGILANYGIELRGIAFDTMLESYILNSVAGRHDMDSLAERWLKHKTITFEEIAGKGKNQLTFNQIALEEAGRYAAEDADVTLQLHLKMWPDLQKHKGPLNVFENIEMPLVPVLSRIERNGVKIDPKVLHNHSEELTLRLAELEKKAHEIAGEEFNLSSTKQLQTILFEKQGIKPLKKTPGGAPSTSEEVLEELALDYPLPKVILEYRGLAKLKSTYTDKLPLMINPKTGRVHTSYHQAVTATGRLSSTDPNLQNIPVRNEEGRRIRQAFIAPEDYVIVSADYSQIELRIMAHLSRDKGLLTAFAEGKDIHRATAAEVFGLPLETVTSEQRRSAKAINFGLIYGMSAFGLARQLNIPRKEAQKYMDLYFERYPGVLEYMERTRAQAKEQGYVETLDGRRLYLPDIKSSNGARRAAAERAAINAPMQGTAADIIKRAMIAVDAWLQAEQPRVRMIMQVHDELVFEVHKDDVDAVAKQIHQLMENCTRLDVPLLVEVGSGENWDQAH
Procedure: (§4) Klenow fragment (0.1 units) was added to the microtubes with reaction mixture pre-heated to 37° C., and following 7.5 minutes incubation at 37° C. (a time-point within the region of linear kinetics determined in a separate experiment, not shown), the reaction microtubes were placed on ice, and the reaction was stopped by addition of 12 μl of 50 mM EDTA and then applied on strips of chromatographic paper (Whatman No. 3). Strips were washed three times by cold TCA 10%, dried and the radioactivity was counted.

DNA = details: for each 10% increase in glycerol concentration; cited from earlier work
Klenow DNA polymerase [8] = biological target: T2, Klenow DNA polymerase; assay: Remaining activity of Klenow DNA polymerase after incubation at 65° C.; format: biochemical; details: 5M proline
Procedure: as §4
The microtubes were vortexed and Klenow enzyme was added to the samples. The Klenow DNA polymerase activity assay was performed as described in section (iv) above at 6.7 mM concentration of MgCl2. To each aliquot (5 μl) 20 μl of stock solution containing all other components of the assay were added, making a total reaction volume of 25 μl and a 5-fold dilution of the aliquots.

[9] = test system: 349 b.p. fragment (66.5% GC) from Halobacterium marismortui genomic DNA; details: 4.0M proline
Procedure: PCR was performed in 25 μl reaction mixture containing 250 ng of Halobacterium marismortui genomic DNA template, 0.12 nM of each 30-mer oligonucleotide primers 5 and 6 described in section (i) above, 0.3 μl of Klentaq1 and Pfu (or Vent) enzymes mixture, prepared as described (Barnes, 1994), 200 μM of each dNTP, in PCR buffer containing: 10 mM Tris-HCl (pH 8.3 at 25° C.) and 50 mM KCl. […] Reaction mixtures were preheated for 1 min at their respective denaturation temperatures, except for reactions performed at Td 95° C., that were preheated for 1 min at 94° C., and then subjected to 35 thermal cycles as follows: (I) 30 sec incubation at 72-95° C., as indicated in each experiment (denaturation step); (ii) 90 sec incubation at 37-55° C., as indicated in each experiment (primer annealing step); and (iii) 7 min incubation at 63-69° C., as indicated in each experiment (primer extension).
Reaction mixtures were preheated for 1 min at their respective denaturation temperatures (77° C. and 75° C.), and then subjected to 35 thermal cycles as follows: (i) 30 sec incubation at 77° C. or 75° C. (denaturation step); (ii) 90 sec incubation at 44° C. (primer annealing step); and (iii) 7 min incubation at 65° C. (primer extension).

[10] = test system: 349 b.p. fragment (66.5% GC) from Halobacterium marismortui genomic DNA; details: PCR with 10-15 units Klenow, denaturation 70° C., FIG. 12
[11] = test system: Micrococcus lysodeikticus DNA (72% GC); details: 6.2M proline
Procedure: as §1

[12] = test system: 349 b.p. fragment (66.5% GC) from Halobacterium marismortui genomic DNA; details: 1.0M proline
Procedure: PCR was performed in 25 μl reaction mixture containing 3 ng of Halobacterium marismortui genomic DNA template, 0.12 nM of each 28-mer oligonucleotide primers 3 and 4 described in section (i) above, 0.5 units of Taq DNA polymerase, 200 μM of each dNTP, in PCR buffer containing: 10 mM Tris-HCl (pH 8.8 at 25° C.), 50 mM KCl, 0.08% Nonidet P40. […] Reaction mixtures were preheated for 3 min at their respective denaturation temperatures, except for reactions performed at Td 95° C., that were preheated for 3 min at 94° C., and then subjected to 35 thermal cycles as follows: (I) 30 sec incubation at 91-95° C., as indicated in each experiment (denaturation step); (ii) 90 sec incubation at 55° C. (primer annealing step); and (iii) 60 sec incubation at 72° C. (primer extension).

[13] = 30 min incubation at 97° C., 10% without additives
[14] = 60 min incubation at 97° C., 5% or less without additives

Compound: C[S+](C)[O-] [DMSO]
- inhibition of Taq DNA polymerase activity (Taq DNA polymerase [1]): 53%

Compound: CC1=NCC(O)C(C(=O)O)N1 (stereo not shown) [THP(A), 2-methyl-4-carboxy-5-hydroxy-3,4,5,6-tetrahydropyrimidine]
- effectiveness in stabilizing Taq DNA polymerase (comparison) (Taq DNA polymerase [2]; 97° C., 1M additives, FIG. 5): more effective than THP(B) or glycerol
- remaining Taq polymerase activity (Taq DNA polymerase [2]; [13]): 50% and 55%
- remaining Taq activity relative to no additives (Taq DNA polymerase [2]; 60 min incubation at 97° C.): 10 fold
- remaining Taq polymerase activity (Taq DNA polymerase [2]; [14]): 45% and 55%
- toxicity (animals; animals): not toxic
- toxicity (mammalian cells; mammalian cells): not toxic

Compound: CC1=NCCC(C(=O)O)N1 (stereo not shown) [THP(B), 2-methyl-4-carboxy-3,4,5,6-tetrahydropyrimidine]
- DNA melting temperature (calf thymus DNA (42% GC); 3 or 4M THP(B)): 41 °C
- change in melting temperature of poly(dA-dT) (poly(dA-dT); 1-4M THP(B)): did not exhibit any change; also recorded: no change
- remaining Taq polymerase activity (Taq DNA polymerase [2]; [13]): 40%
- remaining Taq polymerase activity (Taq DNA polymerase [2]; [14]): 20%
- decrease of melting temperature ([3]; 0.5M additive): 3 EC
- Tm ([3]; 0.5 M additive): 45.0 °C
- decrease of melting temperature ([3]; 1.0M additive): 6 EC
- Tm ([3]; 1.0 M additive): 42.0 °C
- decrease of melting temperature ([4]; 0.5M additive): 2 EC
- Tm ([4]; 0.5 M additive): 29.5 °C
- decrease of melting temperature ([4]; 1.0M additive): 3.5 EC
- Tm ([4]; 1.0 M additive): 28.0 °C
- toxicity (animals; in vivo): not toxic
- PCR amplification ([5]; 0.5M THP(B), Td 92° C.): amplified sequences were produced only in the presence of THP(B)
- yield and specificity of DNA amplification ([5]; 0.5M THP(B), Td 95° C. and 92° C.): improved
- PCR amplification ([5]; 1.0M THP(B), Td 89° C., 0.5 units Taq): markedly lower
- PCR amplification ([5]; 1.0M THP(B), Td 90° C., 0.5 or 0.75 units Taq): specific amplified sequence was generated only in the presence of THP(B)
- PCR amplification ([5]; 1.0M THP(B), Td 95° C.): improved PCR specific amplification
- temperature range in which all DNAs melt ([6]; 4M THP(B), 39 to 75° C. in its absence): 40-43 °C
- toxicity (mammalian cells): not toxic

Compound: C[N+](C)(C)CC(=O)O [betaine, Betaine, reference compound]
- decrease of melting temperature ([3]; 1.0M additive): −2 EC
- Tm ([4]; 1.0 M additive): 29.2 °C

Compound: NC=O [formamide]
- T7 DNA polymerase activity (T7 DNA polymerase): completely inactive

Compound: OCC(O)CO [glycerol]
- thermal stability of Taq polymerase (Taq polymerase): doubling
- effect on Klenow polymerase activity (Klenow DNA polymerase [7]): stimulative
- lowering of DNA melting temperatures (DNA): 2.5-3 °C

Compound: O=C(O)[C@@H]1CCCN1 [proline, L-Proline]
- half life of Klenow DNA polymerase relative to no additive (Klenow DNA polymerase [8]): 30-50 fold
- DNA melting temperature (calf thymus DNA (42% GC); 6.2M proline): 27 °C
- change in melting temperature of poly(dA-dT) (poly(dA-dT); 1-5M proline): did not exhibit any change
- change in melting temperature of poly(dA-dT) (poly(dA-dT); 5-6.2M proline): small effect
- melting lower than DNAs of GC content 42% and 26% (poly(dA-dT); 6.2M proline): about 15 °C
- PCR performance ([9]; denaturation temperature 75° C.): but not at 75 °C
- PCR performance ([9]; denaturation temperature 77° C.): enough for successful PCR
- proline concentration sufficient to confer stability to Klenow polymerase (and conduct successful PCR) [10]: 3-5.5 M
- range of melting higher than DNAs of GC content 42% and 26% [11]: about 5 °C
- temperature range in which all DNAs melt ([6]; 6.2M proline, 38 to 78° C. in its absence): 25-32 °C
- Tm values of the tested natural DNAs ([6]; 6.2 M proline, 57-78° C. without): 28-32 °C
- effect on Klenow polymerase activity (Klenow DNA polymerase [7]): stimulative
- effect on Klenow DNA polymerase activity (Klenow DNA polymerase [7]; listed as L-proline): only slightly decreased
- effect on Klenow DNA polymerase activity (Klenow DNA polymerase [7]; listed as Proline): only slightly decrease
- PCR performance ([12]; denaturation temperature 91° C.): enabled successful PCR
- PCR performance ([12]; denaturation temperature 95° C.): did not impair PCR performance
